Experimental data as given in US8173797B2 (Cornell Research Foundation, Inc., priority 2004, dated 2012).

Assay: solubility in aprotic NMR solvents
Format: physicochemical

For `CC1OC(OC2C(O)C(C)OC(OC3C(COS(=O)(=O)O)OC(n4cnc5c(=O)[nH]c(N)nc54)C3O)C2O)C(O)C(O)C1O` (stereo not shown) [Compound 2], the solubility was “quite insoluble”.
